# Source: paper PMC11851430, “Workflow for E3 Ligase Ligand Validation for PROTAC Development” (ACS Chemical Biology, 2025)
# Tests used:
# Jurkat cells = assay: CellTiterGlo cell viability assay; type: cell-based, human; conditions: Homo sapiens, 24 h, mean of triplicates, ^b/^c values estimated, read-out: IC50±sd/μM (cell viability)
# Procedure: The effects of the compounds on cell viability was determined using the CellTiter-Glo® 2.0 Cell Viability Assay (Promega: G9241) following manufacturer’s protocol. Ten µL of Jurkat cells at […]
# After equilibration, PROTACs were titrated at various concentrations using an Echo acoustic […]
# volume of CellTiter-Glo® 2.0 reagent (10 µL) was added to each well and cells were incubated for 10 minutes at room temperature. Filtered luminescence was measured on a PHERAstar plate reader (BMG Labtech) and data was evaluated using GraphPad Prism 9 software employing a normalized curve it with the following equation: Y=Bottom + (Top-Bottom)/(1+10(LogEC50-X) *HillSlope).
# Sample preparation. Jurkat cells (ATCC © HTB-22) were cultured in RPMI (Thermo: […]
# [1] = target: T1, kinase protein levels in MCF-7 cells (Homo sapiens, UniProt A0A0B4J2F0); assay: TMT-labeled quantitative proteomics; type: cell-based; conditions: protein PIGBOS1; MCF7; 1 µM; set1.1
# T1 construct: endogenous in cells; host or cells: MCF-7
# T1 sequence (A0A0B4J2F0 1-54): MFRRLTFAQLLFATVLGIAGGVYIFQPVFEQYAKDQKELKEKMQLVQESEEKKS
# Procedure: (§1) 50 µl of SDS Lysis Buffer (2% SDS, 50 mM TRIS pH 8.5, 10 mM TCEP, 40 mM CAA) was added to each sample. Cells were transferred into low binding reaction tubes (Eppendorf:
# (§2) Methanol/Chloroform Precipitation. 200 µl of methanol and 50 µl of chloroform were added to each sample reaction tube and mixed via vortex. 150 µl of milliQ-H2O were added and samples were vortexed further. Samples were centrifuged for 5 minutes at 15000 g and the aqueous layer above the interphase was removed. 150 µl of methanol was added, samples were vortexed and centrifuged for 10 minutes at 15000 g to precipitate the pellet. The aforementioned wash procedure was repeated twice before transferring the pellet to a new low bind reaction tube in which it was allowed to dry for 5 minutes.
# (§3) Dissolving the Protein Pellet and Protein Quantification. 50 µl of digestion buffer (8 M Urea, 50 mM TRIS pH 8) was added to each sample before vortexing and shaking at 750 rpm at room temperature for 10 minutes to solubilize the pellet. Protein quantification via PierceTM […]
# (§4) Protein Digestion. Samples were diluted 1:2 with 50 mM TRIS pH 8.5 to reach a final concentration of 4 M Urea. Lys-C (Promega: VA1170) was added at a 1:100 enzyme/substrate ratio. Samples were agitated at 550 rpm and 37 °C for 3 h. Samples were further diluted with 50 mM TRIS pH 8.5 to a final concentration of 1 M Urea and Trypsin (Promega: V5280) was added at a 1:100 enzyme/substrate ratio. Samples were agitated overnight at 550 rpm and 37 °C. The digestion was stopped the following day via addition of TFA to a final concentration […]
# (§5) Solid Phase Extraction via C18 Cartridges. Sep-Pak C18 Cartridges (Waters: WAT054955) were used for solid phase extraction of digested peptides. For preconditioning of C18 cartridges, 1 mL of methanol was added to each column followed by 1 mL of solution B (0.1% formic acid, 80% acetonitrile) and 1 mL of solution A (0.1% formic acid, ddH2O) twice. Samples […]
# (§6) were loaded to their respective columns and once samples had passed, columns were washed twice with solution A to remove unwanted components from the loading step. Elution of samples was carried out via introduction of 40% and 60% acetonitrile steps. Samples were dried and snap frozen in liquid nitrogen.
# (§7) TMT-Labeling. Desalted peptides were dried and resuspended in TMT-labeling buffer (200 mM EPPS pH 8.2, 20% acetonitrile). 10 μg of peptides per condition were subjected to TMT labeling with 1:2.5 peptide TMT ratio (w/w) for 1 h at room temperature. The labeling reaction was quenched by addition of hydroxylamine to a final concentration of 0.5% and incubation at room temperature for 15 minutes. Successful TMT labeling was verified by mixing equimolar ratios of peptides and subjecting the mix to single shot LC-MS/MS analysis. For high pH reversed phase fractionation on a Dionex analytical HPLC, 50 µg of pooled and purified TMT labelled samples were resuspended in 10 mM ammonium-bicarbonate (ABC), 5% acetonitrile, and separated on a 250 mm long C18 column (Aeris Peptide XB-C18, 4.6 mm ID, 2.6 µm particle size; Phenomenex) using a multistep gradient from 100% solvent A (5% acetonitrile, 10 mM ABC in water) to 60% solvent B (90% acetonitrile, 10 mM ABC in water) over 70 minutes. Eluting peptides were collected every 45 seconds into a total of 96 fractions, which were cross-concatenated into 24 fractions and dried in a vacuum concentrator and resuspended in 3% acetonitrile with 0.1% TFA for LC-MS analysis.
# (§8) Mass spectrometry data acquisition. Tryptic peptides were analyzed on an Orbitrap Lumos coupled to an easy nLC 1200 (ThermoFisher Scientific) using a 35 cm long, 75 µm ID fused-silica column packed in house with 1.9 µm C18 particles (Reprosil pur, Dr. Maisch), and kept at 50 °C using an integrated column oven (Sonation). HPLC solvents consisted of 0.1% formic acid in water (buffer A) and 0.1% formic acid and 80% acetonitrile in water (buffer B). Assuming
# [2] = test system: kinase protein levels in MCF-7 cells; assay: TMT-labeled quantitative proteomics; type: cell-based, human; conditions: for log2FC (compound/DMSO): MCF7, 1 µM, set1.1
# Procedure: as §1, §2, §3, §4, §5, §6, §7, §8
# [3] = test system: kinase protein levels in Jurkat cells; assay: TMT-labeled quantitative proteomics; type: cell-based, human; conditions: Jurkat, 1 µM, set1.2
# Procedure: cultured in RPMI (Thermo: 11875093) supplemented as mentioned above. Cells were seeded in 6 well plates (Greiner: 657160) at a cell density of 1·10 6 cells/well and left at 37 °C and 5% […]
# as §1
# 0030108116) and samples were boiled for 15 minutes at 95 °C and sonicated for 2 minutes.
# as §2
# Dissolving the Protein Pellet and Protein Quantification. 50 µl of digestion buffer (8 M Urea, 50 mM TRIS pH 8) was added to each sample before vortexing and shaking at 750 rpm at room temperature for 10 minutes to solubilize the pellet. Protein quantification via PierceTM BCA Protein Assay Kit (Thermo: 23225) was carried out according to manufacturer’s protocol.
# as §4, §5, §6
# TMT-Labeling. Desalted peptides were dried and resuspended in TMT-labeling buffer (200 mM EPPS pH 8.2, 20% acetonitrile). 10 μg of peptides per condition were subjected to TMT labeling with 1:2.5 peptide TMT ratio (w/w) for 1 h at room temperature. The labeling reaction was quenched by addition of hydroxylamine to a final concentration of 0.5% and incubation at room temperature for 15 minutes. Successful TMT labeling was verified by mixing equimolar ratios of peptides and subjecting the mix to single shot LC-MS/MS analysis. For high pH reversed phase fractionation on a Dionex analytical HPLC, 50 µg of pooled and purified TMT labelled samples were resuspended in 10 mM ammonium-bicarbonate (ABC), 5% acetonitrile, […]
# particle size; Phenomenex) using a multistep gradient from 100% solvent A (5% acetonitrile, 10 mM ABC in water) to 60% solvent B (90% acetonitrile, 10 mM ABC in water) over 70 minutes. Eluting peptides were collected every 45 seconds into a total of 96 fractions, which were cross-concatenated into 24 fractions and dried in a vacuum concentrator and resuspended in 3% acetonitrile with 0.1% TFA for LC-MS analysis.
# Mass spectrometry data acquisition. Tryptic peptides were analyzed on an Orbitrap Lumos coupled to an easy nLC 1200 (ThermoFisher Scientific) using a 35 cm long, 75 µm ID fused-
# VHL = VHL (Homo sapiens, UniProt P40337); assay: NanoBRET target engagement assay; conditions: permeabilized cells
# Sequence of VHL (P40337 whole entry): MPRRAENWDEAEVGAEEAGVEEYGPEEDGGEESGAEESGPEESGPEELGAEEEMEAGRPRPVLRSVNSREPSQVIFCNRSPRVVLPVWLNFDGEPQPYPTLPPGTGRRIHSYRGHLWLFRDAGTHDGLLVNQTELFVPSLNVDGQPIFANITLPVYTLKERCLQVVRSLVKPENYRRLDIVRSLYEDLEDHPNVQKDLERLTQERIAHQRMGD
# Procedure: Compounds were pipetted at various concentrations using an Echo acoustic dispenser (Labcyte), immediately followed by Tracer K10 (Promega, Tracer DB ID: T000008) for AAK1 and Aurora A and VHL Tracer (Promega, Tracer DB ID: T000019) for VHL, at an optimum KD concentration chosen from TracerDB ( tracerdb.org), respectively.
# To measure the BRET signal, the NanoBRET® NanoGlo Substrate (Promega:
# N1573) was added as per the manufacturer’s protocol, and filtered luminescence was measured on a PHERAstar plate reader (BMG Labtech) equipped with a luminescence filter pair (450 nm BP filter (donor) and 610 nm LP filter (acceptor)). For NanoBRET® measurement in permeabilized cells, 25 nL of digitonin (0.05 μg/μL) was pipetted into each well using an
# After incubation, the BRET signals were measured by a PHERAstar plate reader (BMG Labtech) following the same procedure as intact NanoBRET® measurement. Competitive displacement data were then normalized to controls and were plotted using GraphPad Prism 9 software employing a normalized 3-parameter curve fit with the following equation:
structure (smiles),measurement,setting,value
Cc1ncsc1-c1ccc(CNC(=O)[C@@H]2C[C@@H](O)CN2C(=O)[C@@H](NCCOCCOCCOCCOCCC(=O)N2CCN(c3ccc(Nc4ncc(Cl)c(Nc5ccccc5C(N)=O)n4)cc3)CC2)C(C)(C)C)cc1 [6-c],IC50,Jurkat cells,8.5 ± 0.8 µM
same,P.Value (compound/DMSO),[1],0.867
same,log2FC (compound/DMSO),[1],-0.01736
same,kinase degradation,"[2]; MCF-7 cells, 1 μM, 6 h",did not result in significant degradation of any kinase
same,log2FC (compound/DMSO),[2]; protein NBPF19;NBPF15;NBPF8;NBPF10;NBPF26;NBPF14,-0.692
same,log2FC (compound/DMSO),[2]; protein NUDT4,-0.0761
same,log2FC (compound/DMSO),[3]; protein NUDT4,0.05309
same,log2FC (compound/DMSO),[3]; protein PIGBOS1,-0.1563
same,log2FC (compound/DMSO),[3]; protein TRAV8-2,-0.1064
same,log2FC (compound/DMSO),[3]; protein TRBV12-3;TRBV12-4,-0.03811
same,VHL binding,VHL,did not bind strongly to VHL
